Assay results as given in PubChem BioAssay (NCI).
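Compound exposure: 48 hours, 5 concentrations, 96-well plates. GI50 = concentration required for 50% inhibition of growth. Definition used: TGI = concentration required for complete inhibition of growth.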

What was measured:
Test in all cases: inhibition of tumour cell growth, NCI panel, 48 h
786-0 renal = test system: 786-0 renal
A498 renal = test system: A498 renal
A549 NSCLC = test system: A549 NSCLC
ACHN renal = test system: ACHN renal
BT-549 breast = test system: BT-549 breast
CAKI-1 renal = test system: CAKI-1 renal
CCRF-CEM leukemia = test system: CCRF-CEM leukemia
COLO 205 colon = test system: COLO 205 colon
DU-145 prostate = test system: DU-145 prostate
EKVX NSCLC = test system: EKVX NSCLC
HCC-2998 colon = test system: HCC-2998 colon
HCT-116 colon = test system: HCT-116 colon
HCT-15 colon = test system: HCT-15 colon
HL-60(TB) leukemia = test system: HL-60(TB) leukemia
HOP-62 NSCLC = test system: HOP-62 NSCLC
HOP-92 NSCLC = test system: HOP-92 NSCLC
HS 578T breast = test system: HS 578T breast
HT29 colon = test system: HT29 colon
IGROV1 ovarian = test system: IGROV1 ovarian
K-562 leukemia = test system: K-562 leukemia
KM12 colon = test system: KM12 colon
LOX IMVI melanoma = test system: LOX IMVI melanoma
M14 melanoma = test system: M14 melanoma
MALME-3M melanoma = test system: MALME-3M melanoma
MCF7 breast = test system: MCF7 breast
MDA-MB-231 breast = test system: MDA-MB-231 breast
MDA-MB-435 = test system: MDA-MB-435
MOLT-4 leukemia = test system: MOLT-4 leukemia
NCI-H226 lung = test system: NCI-H226 lung

Which results are given for `N#Cc1c(NC(=O)NCc2ccccc2)sc2c1CCCCC2`?
GI50 (786-0 renal): 761 nM; TGI (786-0 renal): > 100000 nM; GI50 (A498 renal): 218 nM; TGI (A498 renal): 1100 nM; GI50 (A549 NSCLC): 626 nM; TGI (A549 NSCLC): > 100000 nM; GI50 (ACHN renal): 629 nM; TGI (ACHN renal): > 100000 nM; GI50 (BT-549 breast): 923 nM; TGI (BT-549 breast): > 100000 nM; GI50 (CAKI-1 renal): 659 nM; TGI (CAKI-1 renal): > 100000 nM; GI50 (CCRF-CEM leukemia): 357 nM; TGI (CCRF-CEM leukemia): > 100000 nM; GI50 (COLO 205 colon): 521 nM; TGI (COLO 205 colon): 3740 nM; GI50 (DU-145 prostate): 564 nM; TGI (DU-145 prostate): 4710 nM; GI50 (EKVX NSCLC): 461 nM; TGI (EKVX NSCLC): > 100000 nM; GI50 (HCC-2998 colon): 1770 nM; TGI (HCC-2998 colon): > 28500 nM; GI50 (HCT-116 colon): 528 nM; TGI (HCT-116 colon): > 100000 nM; GI50 (HCT-15 colon): 417 nM; TGI (HCT-15 colon): > 100000 nM; GI50 (HL-60(TB) leukemia): 286 nM; TGI (HL-60(TB) leukemia): 843 nM; GI50 (HOP-62 NSCLC): 706 nM; TGI (HOP-62 NSCLC): > 64200 nM; GI50 (HOP-92 NSCLC): 547 nM; TGI (HOP-92 NSCLC): 20900 nM; GI50 (HS 578T breast): 314 nM; TGI (HS 578T breast): 9330 nM; GI50 (HT29 colon): 398 nM; TGI (HT29 colon): > 100000 nM; GI50 (IGROV1 ovarian): 719 nM; TGI (IGROV1 ovarian): > 100000 nM; GI50 (K-562 leukemia): 371 nM; TGI (K-562 leukemia): > 100000 nM; GI50 (KM12 colon): 448 nM; TGI (KM12 colon): > 100000 nM; GI50 (LOX IMVI melanoma): 573 nM; TGI (LOX IMVI melanoma): > 100000 nM; GI50 (M14 melanoma): 415 nM; TGI (M14 melanoma): > 100000 nM; GI50 (MALME-3M melanoma): 524 nM; TGI (MALME-3M melanoma): > 100000 nM; GI50 (MCF7 breast): 353 nM; TGI (MCF7 breast): > 100000 nM; GI50 (MDA-MB-231 breast): 973 nM; TGI (MDA-MB-231 breast): 13900 nM; GI50 (MDA-MB-435): 220 nM; TGI (MDA-MB-435): 564 nM; GI50 (MOLT-4 leukemia): 456 nM; TGI (MOLT-4 leukemia): > 100000 nM; GI50 (NCI-H226 lung): 1050 nM
